From PMC12690121 (Nature Communications, 2025)

T1: ArnC (Salmonella enterica, UniProt O52324)
T1 sequence (O52324 1-327): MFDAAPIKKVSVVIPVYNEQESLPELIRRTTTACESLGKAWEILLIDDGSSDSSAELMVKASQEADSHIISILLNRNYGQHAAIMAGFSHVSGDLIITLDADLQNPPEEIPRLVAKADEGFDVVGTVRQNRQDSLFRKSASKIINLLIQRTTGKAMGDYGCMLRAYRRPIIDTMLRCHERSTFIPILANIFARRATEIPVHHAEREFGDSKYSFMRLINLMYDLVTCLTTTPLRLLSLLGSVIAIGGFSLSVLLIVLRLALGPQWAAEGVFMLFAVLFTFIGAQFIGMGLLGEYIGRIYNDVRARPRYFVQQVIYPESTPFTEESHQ

B1: ArnC from Salmonella enterica (ArnCSe) (enzyme)
chain: T1 sequence (O52324 1-327)

What was measured:
[1] = biological target: T1, ArnC; assay: MST; format: binding
[2] = biological target: the molecule itself; assay: cryo-EM structure

Molecule	Kd [1] [µM]	stoichiometry N [2]
O=c1ccn([C@@H]2O[C@H](COP(=O)(O)OP(=O)(O)O)[C@@H](O)[C@H]2O)c(=O)[nH]1 [UDP]	8.5	
B1		4
